Reference: ChEMBL document CHEMBL1201862, “PubChem BioAssay data set” (2004)
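Each compound was tested at five concentrations against cells in 96-well plates for 48 hours. GI50 = concentration required for 50% inhibition of growth.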 Active and inactive are the calls of the source. Cut-off read from the data, not from the text of the source: active = GI50 up to about 1.1 µM and inactive = higher.

Assays:
Assay in all cases: NCI anticancer screen, dose series, 48 h
MOLT-4 = test system: MOLT-4
HCT-116 = test system: HCT-116
HCC 2998 = test system: HCC 2998
Hs-578T = test system: Hs-578T
SF-268 = test system: SF-268
MDA-MB-231 = test system: MDA-MB-231
SF-539 = test system: SF-539
NCI-H460 = test system: NCI-H460
CAKI-1 = test system: CAKI-1
OVCAR-5 = test system: OVCAR-5
UACC-62 = test system: UACC-62
NCI-H226 = test system: NCI-H226
ACHN = test system: ACHN
UACC-257 = test system: UACC-257
SR = test system: SR
A498 = test system: A498
TK-10 = test system: TK-10
OVCAR-4 = test system: OVCAR-4
SK-OV-3 = test system: SK-OV-3

Measured: GI50

CS(=O)(=O)Nc1ccc2c(c1)N(S(C)(=O)=O)CC2CCl (configuration not stated)
inactive: MOLT-4 > 100 µM | HCT-116 > 100 µM | HCC 2998 > 100 µM | Hs-578T > 100 µM | SF-268 > 100 µM | MDA-MB-231 > 100 µM | SF-539 > 100 µM | NCI-H460 > 100 µM | CAKI-1 > 100 µM | OVCAR-5 > 100 µM | UACC-62 > 100 µM | NCI-H226 > 100 µM | ACHN > 100 µM | UACC-257 > 100 µM | SR > 100 µM | A498 > 100 µM | TK-10 > 100 µM | OVCAR-4 > 100 µM

CCOC(=O)C1(C)CCC(C(=O)OC)C1=O (configuration not stated)
inactive: MOLT-4 87.9 µM | HCT-116 57 µM | HCC 2998 75.3 µM | SF-268 > 100 µM | SF-539 > 100 µM | NCI-H460 15.3 µM | CAKI-1 > 100 µM | OVCAR-5 > 100 µM | UACC-62 > 100 µM | NCI-H226 > 100 µM | ACHN > 100 µM | UACC-257 > 100 µM | SK-OV-3 > 100 µM | SR 24.6 µM | A498 > 100 µM | TK-10 > 100 µM | OVCAR-4 > 100 µM

[N-]=[N+]=Nc1cccc(-c2nnc(Cl)cc2O)c1
inactive: MOLT-4 > 100 µM | HCT-116 > 100 µM | HCC 2998 > 100 µM | Hs-578T > 100 µM | SF-268 > 100 µM | MDA-MB-231 > 100 µM | SF-539 > 100 µM | NCI-H460 > 100 µM | UACC-62 > 100 µM | NCI-H226 > 100 µM | ACHN > 100 µM | UACC-257 > 100 µM | SK-OV-3 > 100 µM | SR > 100 µM | A498 > 100 µM | TK-10 > 100 µM | OVCAR-4 > 100 µM

CN1/C(=N\c2ccccc2)S/C1=N/c1ccccc1
inactive: MOLT-4 69.3 µM | HCT-116 47.6 µM | HCC 2998 66.8 µM | SF-268 > 100 µM | SF-539 > 100 µM | NCI-H460 > 100 µM | OVCAR-5 > 100 µM | UACC-62 > 100 µM | NCI-H226 > 100 µM | ACHN 70.6 µM | UACC-257 > 100 µM | SK-OV-3 > 100 µM | SR 95.7 µM | A498 96.4 µM | TK-10 > 100 µM | OVCAR-4 59.7 µM

C[C@]12CC=CC(=O)[C@@]1(C)CCC(=O)C2
inactive: MOLT-4 > 100 µM | HCT-116 > 100 µM | HCC 2998 > 100 µM | SF-268 > 100 µM | SF-539 > 100 µM | NCI-H460 > 100 µM | CAKI-1 > 100 µM | OVCAR-5 > 100 µM | UACC-62 > 100 µM | NCI-H226 > 100 µM | ACHN > 100 µM | UACC-257 > 100 µM | SK-OV-3 > 100 µM | SR > 100 µM | A498 > 100 µM | TK-10 > 100 µM | OVCAR-4 > 100 µM

CSc1nc(C)cc(=O)n1C1OC(COC(C)=O)C(OC(C)=O)C(OC(C)=O)C1OC(C)=O (configuration not stated)
inactive: MOLT-4 > 100 µM | HCT-116 > 100 µM | HCC 2998 > 100 µM | SF-268 > 100 µM | NCI-H460 > 100 µM | OVCAR-5 > 100 µM | UACC-62 > 100 µM | NCI-H226 > 100 µM | ACHN > 100 µM | UACC-257 > 100 µM | SK-OV-3 > 100 µM | SR > 100 µM | A498 > 100 µM | TK-10 > 100 µM | OVCAR-4 > 100 µM

CCOC(=O)Nn1c(C)nnc1CC#N
inactive: MOLT-4 > 100 µM | HCT-116 > 100 µM | HCC 2998 > 100 µM | Hs-578T > 100 µM | SF-268 > 100 µM | MDA-MB-231 > 100 µM | SF-539 > 100 µM | NCI-H460 > 100 µM | CAKI-1 > 100 µM | OVCAR-5 > 100 µM | UACC-62 > 100 µM | NCI-H226 > 100 µM | ACHN > 100 µM | UACC-257 > 100 µM | SR > 100 µM | TK-10 > 100 µM

COc1cc2c(cc1O)CC13CCC(=O)N1CCc1cc(OC)c(O)c-2c13 (configuration not stated)
inactive: MOLT-4 > 68.1 µM | HCT-116 > 68.1 µM | HCC 2998 > 68.1 µM | SF-268 > 68.1 µM | SF-539 > 68.1 µM | NCI-H460 > 68.1 µM | CAKI-1 > 68.1 µM | OVCAR-5 > 68.1 µM | UACC-62 > 68.1 µM | NCI-H226 > 68.1 µM | ACHN > 68.1 µM | UACC-257 > 68.1 µM | SR > 68.1 µM | A498 > 68.1 µM | TK-10 > 68.1 µM | OVCAR-4 > 68.1 µM

C=C(C)C1CC2C(C)=C(OC(C)=O)C1n1c(=O)c3cc4ccccc4cc3c(=O)n12 (configuration not stated)
inactive: MOLT-4 32.7 µM | HCT-116 > 76.7 µM | HCC 2998 70.8 µM | SF-268 81.3 µM | SF-539 > 100 µM | NCI-H460 62.5 µM | CAKI-1 62.2 µM | OVCAR-5 > 100 µM | UACC-62 31.8 µM | NCI-H226 34.7 µM | ACHN > 82.8 µM | UACC-257 > 100 µM | SK-OV-3 > 100 µM | SR 36 µM | A498 > 84.5 µM | TK-10 > 100 µM | OVCAR-4 73.3 µM

CCCCCCCCCC1CC(=O)Oc2cccc(O)c21 (configuration not stated)
inactive: MOLT-4 26.7 µM | HCT-116 36.2 µM | HCC 2998 1.23 µM | SF-268 30.3 µM | SF-539 4.18 µM | NCI-H460 9.91 µM | CAKI-1 32.7 µM | OVCAR-5 28.3 µM | UACC-62 31.5 µM | NCI-H226 6.84 µM | ACHN 30.3 µM | UACC-257 41.3 µM | SK-OV-3 7.69 µM | SR 23.2 µM | A498 22.1 µM | TK-10 36.2 µM | OVCAR-4 33.7 µM

COc1cc(/C=C/C(=N\NC(=O)c2ccccc2)c2sc(Nc3ccc(Cl)c(Cl)c3)nc2C)ccc1O
inactive: MOLT-4 20.7 µM | HCT-116 28.2 µM | HCC 2998 28.8 µM | SF-268 38.6 µM | SF-539 40.8 µM | NCI-H460 31.3 µM | CAKI-1 36.4 µM | OVCAR-5 25.6 µM | UACC-62 7.59 µM | NCI-H226 20.5 µM | ACHN 26.8 µM | UACC-257 29.6 µM | SK-OV-3 70.3 µM | SR 22.3 µM | TK-10 37.5 µM | OVCAR-4 33.4 µM

Fc1ccc(C2NC(=S)NC3=C2CCOc2c3ccc3ccccc23)cc1 (configuration not stated)
inactive: MOLT-4 19.9 µM | HCT-116 4.85 µM | HCC 2998 22.6 µM | Hs-578T 42.1 µM | SF-268 45.1 µM | SF-539 > 100 µM | NCI-H460 30.7 µM | CAKI-1 16.6 µM | OVCAR-5 94.6 µM | ACHN 58.7 µM | UACC-257 53.8 µM | SK-OV-3 82.4 µM | A498 18.9 µM | TK-10 44.9 µM | OVCAR-4 24.7 µM
